The conditions of this data set: topical or ocular, 5 microgram per mL. On the procedure: In Vitro Liver Microsomal Stability Assay
Liver microsomal stability assays are conducted at 1 mg per mL liver microsome protein with an NADPH-generating system in 2% NaHCO3 (2.2 mM NADPH, 25.6 mM glucose 6-phosphate, 6 units per mL glucose 6-phosphate dehydrogenase and 3.3 mM MgCl2). Test compounds are prepared as solutions in 20% acetonitrile-water, and added to the assay mixture (final assay concentration 5 microgram per mL) and incubated at 37° C. Final concentration of acetonitrile in the assay should be <1%. Aliquots (50 μL) are taken out at times 0, 15, 30, 45, and 60 min, and diluted with ice cold acetonitrile (200 μL) to stop the reactions. Samples are centrifuged at 12,000 RPM for 10 min to precipitate proteins. Supernatants are transferred to microcentrifuge tubes and stored for LC/MS/MS analysis of the degradation half-life of the test compounds.
As to `[2H]C([2H])(Cc1ccc(OCC(O)CNC(C)C)cc1)OC` (stereo not shown) [d2-metoprolol, d2-1-Isopropylamino-3-[4-(2-methoxy-ethyl)-phenoxy]-propan-2-ol], the “increase in the degradation half-life as compared to non-isotopically enriched metoprolol” value is recorded as 10-30%.
Then `[2H]C([2H])([2H])OC([2H])([2H])Cc1ccc(OC([2H])([2H])C([2H])(O)C([2H])([2H])NC(C([2H])([2H])[2H])C([2H])([2H])[2H])cc1` (stereo not shown) [d16-metoprolol, d16-1-Isopropylamino-3-[4-(2-methoxy-ethyl)-phenoxy]-propan-2-ol], with 10-30%.
As for `[2H]C([2H])([2H])OC([2H])([2H])Cc1ccc(OCC(O)CNC(C)C)cc1` (stereo not shown) [d5-metoprolol, d5-1-Isopropylamino-3-[4-(2-methoxy-ethyl)-phenoxy]-propan-2-ol], the figure is 10-30%; as for `[2H]C([2H])([2H])OCCc1ccc(OCC(O)CNC(C)C)cc1` (stereo not shown) [d3-metoprolol, d3-1-Isopropylamino-3-[4-(2-methoxy-ethyl)-phenoxy]-propan-2-ol], 10-30%.
